{"source": "patent US20250353842A1", "about": "“BICYCLIC AMINE CDK12 INHIBITORS” (Incyte Corporation, priority 2022, published 2025)", "data": [{"target": "CDK12 complexed with Cyclin K (Homo sapiens (Human), UniProt Q9NYV4)", "sequence (Q9NYV4 whole entry)": "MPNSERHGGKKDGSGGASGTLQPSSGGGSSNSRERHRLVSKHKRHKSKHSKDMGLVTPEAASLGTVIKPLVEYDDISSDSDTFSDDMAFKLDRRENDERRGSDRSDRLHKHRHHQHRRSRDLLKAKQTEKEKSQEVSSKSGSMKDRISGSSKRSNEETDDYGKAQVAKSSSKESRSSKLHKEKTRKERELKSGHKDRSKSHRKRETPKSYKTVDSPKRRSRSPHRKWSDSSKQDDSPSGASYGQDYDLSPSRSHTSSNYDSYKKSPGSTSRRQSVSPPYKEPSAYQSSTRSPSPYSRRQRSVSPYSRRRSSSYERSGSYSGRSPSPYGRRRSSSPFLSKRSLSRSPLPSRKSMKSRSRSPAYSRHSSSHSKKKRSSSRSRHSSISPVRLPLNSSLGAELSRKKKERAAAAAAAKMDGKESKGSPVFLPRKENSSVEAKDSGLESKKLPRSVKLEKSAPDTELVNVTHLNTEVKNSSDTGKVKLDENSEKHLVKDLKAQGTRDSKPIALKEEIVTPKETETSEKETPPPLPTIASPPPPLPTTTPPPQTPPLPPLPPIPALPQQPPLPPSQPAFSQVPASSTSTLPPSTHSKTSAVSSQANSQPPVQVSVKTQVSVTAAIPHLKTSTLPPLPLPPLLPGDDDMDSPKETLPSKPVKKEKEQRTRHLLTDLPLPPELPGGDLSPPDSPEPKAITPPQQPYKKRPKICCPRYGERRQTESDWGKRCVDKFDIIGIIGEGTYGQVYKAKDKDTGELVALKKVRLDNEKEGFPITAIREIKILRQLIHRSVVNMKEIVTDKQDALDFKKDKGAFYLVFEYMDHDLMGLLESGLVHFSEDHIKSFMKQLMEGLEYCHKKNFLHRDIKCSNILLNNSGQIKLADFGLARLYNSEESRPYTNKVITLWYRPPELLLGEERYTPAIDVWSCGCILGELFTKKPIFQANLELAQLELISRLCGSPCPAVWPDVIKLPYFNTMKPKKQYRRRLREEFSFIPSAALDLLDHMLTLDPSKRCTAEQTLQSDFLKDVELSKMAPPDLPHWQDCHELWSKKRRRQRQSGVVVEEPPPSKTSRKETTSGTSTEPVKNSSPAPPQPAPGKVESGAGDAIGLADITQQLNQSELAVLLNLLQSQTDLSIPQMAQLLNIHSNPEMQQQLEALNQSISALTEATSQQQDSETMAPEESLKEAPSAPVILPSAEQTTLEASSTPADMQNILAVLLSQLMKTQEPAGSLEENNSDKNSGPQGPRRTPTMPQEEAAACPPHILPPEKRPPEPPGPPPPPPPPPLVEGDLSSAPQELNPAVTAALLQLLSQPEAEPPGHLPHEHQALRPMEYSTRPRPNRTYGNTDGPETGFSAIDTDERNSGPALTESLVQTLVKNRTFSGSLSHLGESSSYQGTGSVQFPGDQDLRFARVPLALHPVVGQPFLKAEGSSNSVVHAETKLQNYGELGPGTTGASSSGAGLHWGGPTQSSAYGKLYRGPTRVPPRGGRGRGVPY", "sequence (O75909 whole entry partner)": "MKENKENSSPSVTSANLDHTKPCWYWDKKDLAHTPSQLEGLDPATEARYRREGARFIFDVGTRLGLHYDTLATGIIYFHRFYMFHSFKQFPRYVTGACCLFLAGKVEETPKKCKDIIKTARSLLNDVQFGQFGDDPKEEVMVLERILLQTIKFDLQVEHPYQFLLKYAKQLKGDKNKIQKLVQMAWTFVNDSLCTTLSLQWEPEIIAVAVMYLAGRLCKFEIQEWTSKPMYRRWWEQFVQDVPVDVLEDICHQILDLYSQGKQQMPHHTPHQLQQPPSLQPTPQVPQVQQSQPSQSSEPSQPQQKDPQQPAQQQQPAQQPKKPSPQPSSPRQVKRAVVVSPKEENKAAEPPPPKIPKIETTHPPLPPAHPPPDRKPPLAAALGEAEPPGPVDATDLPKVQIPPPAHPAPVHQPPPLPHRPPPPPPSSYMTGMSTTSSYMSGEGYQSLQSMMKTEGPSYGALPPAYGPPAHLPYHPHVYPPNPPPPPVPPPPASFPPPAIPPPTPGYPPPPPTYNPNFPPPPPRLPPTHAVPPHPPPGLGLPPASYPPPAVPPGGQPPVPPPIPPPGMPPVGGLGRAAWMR", "experiment": "CDK enzymatic assay (HTRF, LANCE Ultra kinase assay)", "type": "biochemical", "settings": "60 minutes pre-incubation, 1 mM ATP", "method": "The following activity of the CDK enzymes in complex with their respective cyclins we assayed: CDK1 complexed with Cyclin B1; CDK2 complexed with Cyclin E1; CDK4 complexed with Cyclin D1; CDK6 complexed with Cyclin D1; CDK6 complexed with Cyclin D3; CDK9 complexed with Cyclin T1; CDK7 complexed with Cyclin H/MAT1; CDK2 complexed with Cyclin A2; CDK5 complexed with p35; CDK12 complexed with Cyclin K; CDK13 complexed with Cyclin K. These in vitro enzyme activity are assayed using homogeneous time-resolved energy transfer (HTRF), which measures phosphorylation of a peptide substrate. The LANCE® Ultra kinase assay (PerkinElmer) uses a ULight™-labeled EIF4E-binding protein 1 (THR37/46) peptide (DYSTTPGGTLFSTTPGTRI) (SEQ ID NO: 1) substrate and a Europium-labeled anti-phospho-4E-BP1 antibody (CDK2, CDK1, CDK4, CDK6, CDK9, CDK12, CDK13) or ULight™-labeled Myelin Basic Protein peptide (VTPRTPPP) (SEQ ID NO: 2) substrate and a Europium-labeled anti-phospho-MBP antibody (CDK7). Each CDK enzyme activity assays utilized human CDK co-expressed as N-terminal GST-tagged protein with its full length cyclin partner using a baculovirus expression system.\nEnzyme was pre-incubated with compounds for 30 minutes (CDK1,2,4,6,9) or 60 minutes (CDK7, CDK12, CDK13) prior to addition of ATP and Ulight-peptide (1 mM and 50 nM final, respectively), in assay buffer containing 50 mM HEPES pH 7.5, 1 mM EGTA, 10 mM MgCl2, 2 mM DTT, 0.05 mg/mL BSA, and 0.01% Tween 20.\nThe reaction was then incubated for 60-90 minutes at room temperature. The reactions were stopped by the addition of EDTA and Europium labeled antibody, for a final concentration of 15 mM and 1.0-1.5 nM, respectively. HTRF signals were read after 15-120 minutes. A ratio of fluorescence transferred to the labeled substrate (665 nm) relative to fluorescence of the Europium donor (620 nm) represents the extent of phosphorylation. Ratios for treated wells were normalized to DMSO only (100% activity) and no enzyme (0% activity) controls. Normalized data was analyzed using a three or four parameter dose response curve to determine IC50 for each compound and are shown in Table A. Control reference inhibitors were included on each plate.", "units": {"IC50": "nM"}, "values": [{"smiles": "N#Cc1cnc2c(c1)ncn2[C@@H]1CCC[C@H](Nc2ncc(C#N)c(-c3cnn(CC(F)F)c3)n2)C1", "note": "[Example 35, 3-((1R,3S)-3-((5-Cyano-4-(1-(2,2-difluoroethyl)-1H-pyrazol-4-yl)pyrimidin-2-yl)amino)cyclohexyl)-3H-imidazo[4,5-b]pyridine-6-carbonitrile]", "IC50": "> 500"}, {"smiles": "CCn1cc(-c2nc(N[C@@H]3CCC[C@H](n4cnc5cccnc54)C3)ncc2C#N)cn1", "note": "[Example 24, 2-(((1R,3S)-3-(3H-Imidazo[4,5-b]pyridin-3-yl)cyclohexyl)amino)-4-(1-ethyl-1H-pyrazol-4-yl)pyrimidine-5-carbonitrile]", "IC50": "< 50"}, {"smiles": "FC(F)Cn1cc(-c2nc(N[C@@H]3CCC[C@H](n4cnc5cc(-c6cccnc6)cnc54)C3)ncc2C(F)(F)F)cn1", "note": "[Example 82, 4-(1-(2,2-Difluoroethyl)-1H-pyrazol-4-yl)-N-((1R,3S)-3-(6-(pyridin-3-yl)-3H-imidazo[4,5-b]pyridin-3-yl)cyclohexyl)-5-(trifluoromethyl)pyrimidin-2-amine]", "IC50": "< 50"}, {"smiles": "N#Cc1cnc2c(c1)ncn2[C@H]1CCC[C@@H](Nc2ncc(C#N)c(-c3cnn(CCO)c3)n2)C1", "note": "[Example 68, 3-((1S,3R)-3-((5-Cyano-4-(1-(2-hydroxyethyl)-1H-pyrazol-4-yl)pyrimidin-2-yl)amino)cyclohexyl)-3H-imidazo[4,5-b]pyridine-6-carbonitrile]", "IC50": "< 50"}, {"smiles": "N#Cc1cnc2c(c1)ncn2[C@H]1CCC[C@@H](Nc2ncc(C#N)c(-c3cnn(CCF)c3)n2)C1", "note": "[Example 70, 3-((1S,3R)-3-((5-Cyano-4-(1-(2-fluoroethyl)-1H-pyrazol-4-yl)pyrimidin-2-yl)amino)cyclohexyl)-3H-imidazo[4,5-b]pyridine-6-carbonitrile]", "IC50": "< 50"}, {"smiles": "CC(=O)N1CCN(c2cnc3c(c2)ncn3[C@H]2CCC[C@@H](Nc3ncc(C#N)c(-c4cnn(CC(F)F)c4)n3)C2)CC1", "note": "[Example 74, 2-(((1R,3S)-3-(6-(4-Acetylpiperazin-1-yl)-3H-imidazo[4,5-b]pyridin-3-yl)cyclohexyl)amino)-4-(1-(2,2-difluoroethyl)-1H-pyrazol-4-yl)pyrimidine-5-carbonitrile]", "IC50": "< 50"}, {"smiles": "Cn1ncc(-c2nc(N[C@@H]3CCC[C@H](n4cnc5cccnc54)C3)ncc2C#N)c1C#N", "note": "[Example 20, 2-(((1R,3S)-3-(3H-Imidazo[4,5-b]pyridin-3-yl)cyclohexyl)amino)-4-(5-cyano-1-methyl-1H-pyrazol-4-yl)pyrimidine-5-carbonitrile]", "IC50": "50 to 500"}, {"smiles": "N#Cc1cnc(N[C@@H]2CCC[C@H](n3cnc4cc(F)cc(C#N)c43)C2)nc1-c1cnn(CC(F)F)c1", "note": "[Example 49, 1-((1S,3R)-3-((5-Cyano-4-(1-(2,2-difluoroethyl)-1H-pyrazol-4-yl)pyrimidin-2-yl)amino)cyclohexyl)-5-fluoro-1H-benzo[d]imidazole-7-carbonitrile]", "IC50": "< 50"}, {"smiles": "N#Cc1cnc(N[C@@H]2CCC[C@H](n3cnc4cncc(Br)c43)C2)nc1-c1cnn(CC(F)F)c1", "note": "[Example 39, 2-(((1R,3S)-3-(7-Bromo-1H-imidazo[4,5-c]pyridin-1-yl)cyclohexyl)amino)-4-(1-(2,2-difluoroethyl)-1H-pyrazol-4-yl)pyrimidine-5-carbonitrile]", "IC50": "< 50"}, {"smiles": "FC(F)Cn1cc(-c2nc(N[C@@H]3CCC[C@H](n4cnc5cccnc54)C3)ncc2C(F)(F)F)cn1", "note": "[Example 12, N-((1R,3S)-3-(3H-Imidazo[4,5-b]pyridin-3-yl)cyclohexyl)-4-(1-(2,2-difluoroethyl)-1H-pyrazol-4-yl)-5-(trifluoromethyl)pyrimidin-2-amine]", "IC50": "< 50"}, {"smiles": "Cc1c(-c2nc(N[C@@H]3CCC[C@H](n4cnc5cccnc54)C3)ncc2C#N)cnn1C", "note": "[Example 17, 2-(((1R,3S)-3-(3H-Imidazo[4,5-b]pyridin-3-yl)cyclohexyl)amino)-4-(1,5-dimethyl-1H-pyrazol-4-yl)pyrimidine-5-carbonitrile]", "IC50": "50 to 500"}, {"smiles": "Cc1nn(C)cc1-c1nc(N[C@@H]2CCC[C@H](n3cnc4cccnc43)C2)ncc1C#N", "note": "[Example 19, 2-(((1R,3S)-3-(3H-Imidazo[4,5-b]pyridin-3-yl)cyclohexyl)amino)-4-(1,3-dimethyl-1H-pyrazol-4-yl)pyrimidine-5-carbonitrile]", "IC50": "> 500"}, {"smiles": "Cn1ncc(-c2nc(N[C@@H]3CCC[C@H](n4cnc5cccnc54)C3)ncc2C#N)c1CO", "note": "[Example 26, 2-(((1R,3S)-3-(3H-Imidazo[4,5-b]pyridin-3-yl)cyclohexyl)amino)-4-(5-(hydroxymethyl)-1-methyl-1H-pyrazol-4-yl)pyrimidine-5-carbonitrile]", "IC50": "50 to 500"}, {"smiles": "FC(F)Cn1cc(-c2nc(N[C@@H]3CCC[C@H](n4cnc5cnccc54)C3)ncc2C(F)(F)F)cn1", "note": "[Example 7, N-((1R,3S)-3-(1H-Imidazo[4,5-c]pyridin-1-yl)cyclohexyl)-4-(1-(2,2-difluoroethyl)-1H-pyrazol-4-yl)-5-(trifluoromethyl)pyrimidin-2-amine]", "IC50": "< 50"}, {"smiles": "FC(F)Cn1cc(-c2nc(N[C@@H]3CCC[C@H](n4cnc5cc(C(F)(F)F)cnc54)C3)ncc2C(F)(F)F)cn1", "note": "[Example 4, 4-(1-(2,2-Difluoroethyl)-1H-pyrazol-4-yl)-5-(trifluoromethyl)-N-((1R,3S)-3-(6-(trifluoromethyl)-3H-imidazo[4,5-b]pyridin-3-yl)cyclohexyl)pyrimidin-2-amine]", "IC50": "< 50"}, {"smiles": "CC(C)n1cnc(-c2nc(N[C@@H]3CCC[C@H](n4cnc5cccnc54)C3)ncc2C#N)c1", "note": "[Example 27, 2-(((1R,3S)-3-(3H-Imidazo[4,5-b]pyridin-3-yl)cyclohexyl)amino)-4-(1-isopropyl-1H-imidazol-4-yl)pyrimidine-5-carbonitrile]", "IC50": "< 50"}, {"smiles": "N#Cc1cc2c(cn1)ncn2[C@H]1CCC[C@@H](Nc2ncc(C#N)c(-c3cnn(CC(F)F)c3)n2)C1", "note": "[Example 46, 1-((1S,3R)-3-((5-Cyano-4-(1-(2,2-difluoroethyl)-1H-pyrazol-4-yl)pyrimidin-2-yl)amino)cyclohexyl)-1H-imidazo[4,5-c]pyridine-6-carbonitrile]", "IC50": "< 50"}, {"smiles": "Cc1c(-c2nc(N[C@@H]3CCC[C@H](n4cnc5cc(C#N)cnc54)C3)ncc2C#N)nnn1C", "note": "[28/28A, 3-((1S,3R)-3-((5-Cyano-4-(1,5-dimethyl-1H-1,2,3-triazol-4-yl)pyrimidin-2-yl)amino)cyclohexyl)-3H-imidazo[4,5-b]pyridine-6-carbonitrile]", "IC50": "< 50"}, {"smiles": "Cn1cc(-c2nc(N[C@@H]3CCC[C@H](n4cnc5cc(C#N)cnc54)C3)ncc2C#N)cn1", "note": "[Example 64, 3-((1S,3R)-3-((5-Cyano-4-(1-methyl-1H-pyrazol-4-yl)pyrimidin-2-yl)amino)cyclohexyl)-3H-imidazo[4,5-b]pyridine-6-carbonitrile]", "IC50": "< 50"}, {"smiles": "FC(F)Cn1cc(-c2nc(N[C@@H]3CCC[C@H](n4cnc5cc(N6CCCC6)cnc54)C3)ncc2C(F)(F)F)cn1", "note": "[Example 83, 4-(1-(2,2-Difluoroethyl)-1H-pyrazol-4-yl)-N-((1R,3S)-3-(6-(pyrrolidin-1-yl)-3H-imidazo[4,5-b]pyridin-3-yl)cyclohexyl)-5-(trifluoromethyl)pyrimidin-2-amine]", "IC50": "< 50"}, {"smiles": "N#Cc1cnc(N[C@@H]2CCC[C@H](n3cnc4cc(F)cc(Br)c43)C2)nc1-c1cnn(CC(F)F)c1", "note": "[Example 40, 2-(((1R,3S)-3-(7-Bromo-5-fluoro-1H-benzo[d]imidazol-1-yl)cyclohexyl)amino)-4-(1-(2,2-difluoroethyl)-1H-pyrazol-4-yl)pyrimidine-5-carbonitrile]", "IC50": "< 50"}, {"smiles": "Cc1c(Nc2nc(N[C@@H]3CCC[C@H](n4cnc5cc(C#N)cnc54)C3)ncc2C#N)cnn1C", "note": "[Example 30, 3-((1S,3R)-3-((5-Cyano-4-((1,5-dimethyl-1H-pyrazol-4-yl)amino)pyrimidin-2-yl)amino)cyclohexyl)-3H-imidazo[4,5-b]pyridine-6-carbonitrile]", "IC50": "50 to 500"}, {"smiles": "N#Cc1cnc2c(c1)ncn2[C@H]1CC[C@@H](Nc2ncc(C(F)(F)F)c(-c3cnn(CC(F)F)c3)n2)C1", "note": "[Example 2, 3-((1S,3R)-3-((4-(1-(2,2-Difluoroethyl)-1H-pyrazol-4-yl)-5-(trifluoromethyl)pyrimidin-2-yl)amino)cyclopentyl)-3H-imidazo[4,5-b]pyridine-6-carbonitrile]", "IC50": "> 500"}, {"smiles": "Cc1nccc2c1ncn2[C@H]1CCC[C@@H](Nc2ncc(C#N)c(-c3cnn(CC(F)F)c3)n2)C1", "note": "[Example 85, 4-(1-(2,2-Difluoroethyl)-1H-pyrazol-4-yl)-2-(((1R,3S)-3-(4-methyl-1H-imidazo[4,5-c]pyridin-1-yl)cyclohexyl)amino)pyrimidine-5-carbonitrile]", "IC50": "< 50"}]}]}
